Patent US5242916A, “Method for treatment of neurodegenerative diseases” (R. J. Reynolds Tobacco Company, priority 1992, dated 1993)

Legend:
[1] = molecular target: high affinity nicotinic receptors; assay: Inhibition of L-[3H]nicotine binding to mouse brain membrane preparations; design: species or system Mice (DBA strain); conditions: mouse brain membranes, 2 hr at 4° C., 10 nM L-[3H]nicotine, Ki calculated from IC50 by the method of Cheng et al.
Experimental: Mice (DBA strain) were maintained on a 12 hour light/dark cycle and were allowed free access to water and food supplied by Wayne Lab Blox, Madison, Wis. Animals used in the present studies were 60 to 90 days of age and weighed 20 to 25 g. Brain membrane preparations were obtained from pooled brain tissue of both males and females.
Mice were killed by cervical dislocation. Brains were removed and placed on an ice-cold platform. […] Protein was determined by the method of Lowry, et al., J. Biol. Chem., Vol. 193, pp. 265-275 (1951), using bovine serum albumin as the standard.
The binding of L-[^3 H]nicotine was measured using a modification of the method of Romano, et al., Science, Vol. 210, pp. 647-650 (1980) as described previously by Marks, et al., Mol. Pharmacol., Vol. 30, pp. 427-436 (1986). The binding of L-[^3 H]nicotine was measured using a 2 hr. incubation at 4° C. […] Nonspecific binding was determined by inclusion of 10 μM nonradioactive nicotine in the incubations. The inhibition of L-[^3 H]nicotine binding by test compounds was determined by including one of eight different concentrations of the test compound in the incubation. […] Inhibition constants (Ki values) were calculated from the IC50 values using the method of Cheng, et al., Biochem. Pharmacol., Vol. 22, pp. 3099-3108 (1973). […]

[2] = system: synaptosomes from the striatal area of rat brain; assay: [3H]-Dopamine release from rat striatal synaptosomes; format: biochemical, Sprague-Dawley rats; conditions: Percent release relative to (S)(-)nicotine at equal concentration, 0.2 ml of a 10 μM solution of ligand
Experimental: Dopamine release was measured by preparing synaptosomes from the striatal area of rat brain obtained from Sprague-Dawley rats generally according to the procedures set forth by Nagy, et al., J. Neurochem., Vol. 43, pp. 1114-1123 (1984). Striata from 4 rats were homogenized in 2 ml of 0.32M sucrose buffered with 5 mM HEPES (pH 7.5), using a glass-teflon tissue grinder. The homogenate was diluted to 5 ml with additional homogenization solution and centrifuged at 1000×g for 10 min. This procedure was repeated on the new pellet and the resulting supernatant was centrifuged at 12,000×g for 20 min. […] Using this method, 30 to 90 percent of the dopamine was taken up into the synaptosomes, as determined by scintillation counting following filtration through glass fiber filters soaked with 0.5 percent polyethyleneimine. […] After the addition of a 0.2 ml of a 10 μM solution of ligand, the perfusate was collected into scintillation vials at 1 min. intervals and the dopamine released was quantified by scintillation counting. Peaks of radioactivity released above background were summed and the average basal release during that time was subtracted from the total. Release was expressed as a percentage of release obtained with an equal concentration of (S)-(-)-nicotine.

SMILES	Ki [1]	Dopamine Release [2]
CN1CC2CC(C1)c1cccc(=O)n1C2 (stereo not shown) [N-methylcytisine]	36 nM	29%
O=c1cccc2n1C[C@@H]1CNC[C@H]2C1 [cytisine]	0.4 nM	82%
